The assay deals with 885724-159-R-J1-PDC complex spheroid viability. Description: Anticancer human tumor 885724-159-R-J1-PDC patient-derived pancreatic adenocarcinoma cell line growth inhibition [POLQ]. As to conditions: for viability, T/C: stronger effect = lower value. The protocol: Multicellular complex tumor spheroid response to Polymerase (POL) inhibitors (novobiocin, ART-558, RP6685) in combination with a variety of drugs and investigational agents in selected tumor cell lines
The POL inhibitors (novobiocin, ART-558, and RP6685) were evaluated both individually and in combination with standard of care and investigational anticancer small molecules within a complex spheroid model of solid tumors. . Complex spheroids include a stromal component modeled by human endothelial cells (HUVEC) and fibroblasts modeled by human mesenchymal stem cells (MSCs). The concentration ranges selected for each drug and investigational agent were based upon clinically achievable concentrations if the clinical Cmax of the agent was known.
Compounds. The drugs and investigational agents: novobiocin (NSC847541), ART-558 (NSC835418), RP-6685 (NSC848927), peposertib (NSC802822), ceralasertib (NSC780249), elimusertib (NSC800525), camonsertib (NSC841442), AZD-1390 (NSC803789), olaparib (NSC753686), talazoparib (NSC767125), rucaparib (NSC756644), sotorasib (NSC818433), MRTX-1133 (NSC836407), SN-38 (NSC673596), topotecan (NSC609699), epotoside (NSC141540), doxorubicin (NSC123127), gemcitabine (NSC613327), 5-fluorouracil (NSC19893), paclitaxel (NSC125973), vemurafenib (NSC761431), MSA-2 (NSC828583), SN-011 (NSC837082), adavosertib (NSC754352), prexasertib (NSC758257), carboplatin (NSC241240) and oxaliplatin (NSC266046), were obtained from the National Cancer Institute (NCI) Developmental Therapeutics Program Chemical Repository (21). The FDA-approved anticancer drug set is available from the Developmental Therapeutics Program at https://dtp.cancer.gov/organization/dscb/obtaining/. […] The stock solutions were prepared in dimethyl sulfoxide (DMSO, Sigma-Aldrich, St. Louis, MO, cat. D2650), except for the platinum compounds which were prepared in saline (Quality Biological, Gaithersburg, MD, cat. 114-055-101), at 800-fold the tested concentration and stored at -70 degrees C prior to their use. All drugs and investigational agents were tested over a range starting from a high concentration at or near the clinical Cmax and decreasing in half-log increments. If the clinical Cmax for an agent had not been determined, the highest concentration tested was 10 microM, except for SN-38, which was tested at a high concentration of 1 microM.
Cell Culture. All cells were maintained in an incubator at 37 degrees C and 5% CO2 with 95% humidity. The PDC lines were cultured according to standard operating procedures established by the NCI PDMR (https://pdmr.cancer.gov). Table 3 of the manuscript, lists the cell lines along with the number of the three cell types plated to form the mct-spheroids and media for tumor cell growth. After thawing, all PDC lines, except 997537-175-T-J1-PDC and 415267-285-R-J2-PDC, were cultured in Matrigel-coated flasks prepared with a working solution of 1X Ham's F-12 nutrient mix, without supplementation (Thermo Fisher Scientific, cat. 11765054), 100 U/mL penicillin-streptomycin (Thermo Fisher Scientific, cat. 15140122), and 2.5% Matrigel (Corning Inc., Corning, NY, cat. 354248) for the first three passages. The two PDC lines 997537-175-T-J1-PDC and 415267-285-R-J2-PDC were cultured on uncoated flasks. The 857933-349-R-J2-PDC line was cultured in 6C/Colon 1B media containing advanced DMEM/F-12 (Thermo Fisher Scientific, cat. 12634028), 10 mM HEPES (Thermo Fisher Scientific, cat. 15630080), 1X GlutaMAX supplement (Thermo Fisher Scientific, cat. 35050061), 0.1 mg/mL primocin (InvivoGen, San Diego, CA, cat. ant-pm-2), 10% defined fetal bovine serum, heat inactivated (HyClone Laboratories Inc., Logan, UT, cat. SH30070.03HI), 50% L-WRN conditioned media (ATCC, cat. CRL-3276), 1.25 mM N-Acetyl-L-cysteine (Sigma-Aldrich, cat. A9165), 10 mM nicotinamide (Sigma-Aldrich, cat. N0636), 1X B-27 supplement (Thermo Fisher Scientific, cat. 17504044), 1X N-2 supplement (Thermo Fisher Scientific, cat. […]

Where “and” joins values, the source holds several entries; their conditions need not be identical. Equal values may be shown once.
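Further: spheroids exposed to compounds for 7 days.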

On to `C#Cc1c(F)ccc2cc(O)cc(-c3ncc4c(N5CC6CCC(C5)N6)nc(OCC56CCCN5CC(F)C6)nc4c3F)c12` (stereo not drawn), for which the viability, T/C (as a rule, the result in the treated group divided by that in the control group, in per cent) is 106% and 94.3% and 96.4% (compound 0.0316 µM); 99.8% and 92.7% and 89.8% (compound 0.1 µM); 85.4% and 94.8% and 91.8% (compound 0.316 µM); 67.7% and 67.8% and 78.2% (compound 1 µM); 38.5% and 45.1% and 45.6% (compound 3.16 µM); 20.5% and 24.2% and 20.4% (compound 10 µM). Also, the IC50 (usually the concentration at which inhibition is half-maximal) (curve of compound) is 2.02 µM and 2.37 µM and 2.71 µM.
On to `C=CC(=O)N1CCN(c2nc(=O)n(-c3c(C)ccnc3C(C)C)c3nc(-c4c(O)cccc4F)c(F)cc23)C(C)C1` (stereo not drawn), for which the viability, T/C (compound 0.0316 µM) was 101% and 99.6% and 109%; the viability, T/C (compound 0.1 µM) was 87.9% and 97.3% and 91.8%; the viability, T/C (compound 0.316 µM) is 95.6% and 105% and 106%; the viability, T/C (compound 1 µM) is 98.9% and 116% and 108%; the viability, T/C (compound 3.16 µM) is 105% and 94.4% and 114%; the viability, T/C (compound 10 µM) was 90.5% and 92.3% and 86.1%. Also, the IC50 (curve of compound) was greater than 10 µM.
With `CC(C)n1c(=O)n(C)c2cnc3cc(F)c(-c4ccc(OCCCN5CCCCC5)nc4)cc3c21`, the viability, T/C reads like this: (compound 0.0316 µM) 94.5% and 97.2% and 114%; (compound 0.1 µM) 99.6% and 106% and 103%; (compound 0.316 µM) 98.5% and 110% and 99.5%; (compound 1 µM) 102% and 97.6% and 97.8%; (compound 3.16 µM) 93.2% and 94.7% and 105%; (compound 10 µM) 67% and 74.3% and 92.4%. Moreover, the IC50 (curve of compound) was greater than 10 µM.
In the case of `CC1COCCN1c1cc(C2(O)CC3CCC(C2)O3)c2cnn(-c3ccn[nH]3)c2n1` (stereo not drawn), the viability, T/C reads like this: (compound 0.0316 µM) 74.4% and 70.9% and 67.4%; (compound 0.1 µM) 52.9% and 50.4% (2×); (compound 0.316 µM) 48.7% and 37.5% and 44.3%; (compound 1 µM) 41.8% and 37.1% and 40.4%; (compound 3.16 µM) 37.3% and 33.5% and 35.4%; (compound 10 µM) 28.7% and 26.5% and 27.9%. Under “curve of compound”, the IC50 was 0.226 µM and 0.106 µM and 0.156 µM.
For the compound `CCc1cc2c(N3CCc4c(cc(Cn5ccnc5)cc4-c4cn(C)nc4C(F)(F)F)C3=O)cc(C)nc2c(OC)n1`, the viability, T/C is, setting by setting: (compound 0.0316 µM) 78.8% and 91% and 78.9%; (compound 0.1 µM) 81.9% and 91.9% and 92.2%; (compound 0.316 µM) 79.6% and 85.4% and 85.2%; (compound 1 µM) 81.4% and 83.5% and 75.8%; (compound 3.16 µM) 76.3% and 76.6% and 80.9%; (compound 10 µM) 72.1% and 69.1% and 62.2%. For the same compound, the IC50 (curve of compound) is greater than 10 µM.
With `CCc1cc2c(N3CCc4c(cc(Cn5ccnc5)cc4-c4cn(C)nc4C(F)(F)F)C3=O)ccnc2c(OC)n1`, the viability, T/C (compound 0.0316 µM) is 93.9% and 86.6% and 89.7%; the viability, T/C (compound 0.1 µM) is 80.4% and 79.6% and 85%; the viability, T/C (compound 0.316 µM) is 87.7% and 80.6% and 84.8%; the viability, T/C (compound 1 µM) was 72.1% and 82.8% and 82.3%; the viability, T/C (compound 3.16 µM) is 76.9% and 72.9% and 80%; the viability, T/C (compound 10 µM) was 64.6% and 72.9% and 65%. Further, for the setting “curve of compound”, the IC50 is greater than 10 µM.
Take `COc1cc2cc(C(=O)CCC(=O)O)sc2cc1OC`: the viability, T/C is, setting by setting: (compound 0.0316 µM) 102% and 90.8% and 94.2%; (compound 0.1 µM) 96.9% and 97.3% and 92%; (compound 0.316 µM) 98.9% and 97.8% and 108%; (compound 1 µM) 96.4% and 105% and 95.9%; (compound 3.16 µM) 103% and 99% and 107%; (compound 10 µM) 94.9% and 89% and 90.3%. In addition, the IC50 (curve of compound) was greater than 10 µM.
As to `O=C(Nc1ccc(O)c(NS(=O)(=O)c2ccc(F)cc2)c1)c1ccc(-c2ccccc2)cc1`, the viability, T/C reads like this: (compound 0.0316 µM) 98% and 103% and 91.6%; (compound 0.1 µM) 107% and 100% and 93.8%; (compound 0.316 µM) 101% and 88.4% and 88.6%; (compound 1 µM) 100% and 110% and 97.2%; (compound 3.16 µM) 112% and 118% and 108%; (compound 10 µM) 117% and 97.2% and 76%. Where the note is “curve of compound”, the IC50 was greater than 10 µM.
For the compound `CNCc1ccc(-c2[nH]c3cc(F)cc4c3c2CCNC4=O)cc1` + COC1C(OC(N)=O)C(O)C(Oc2ccc3c(O)c(NC(=O)c4ccc(O)c(CC=C(C)C)c4)c(=O)oc3c2C)OC1(C)C, the IC50 runs as follows: (curve of first compound, second compound 0.0316 µM) greater than 10 µM; (curve of first compound, second compound 0.1 µM) greater than 10 µM; (curve of first compound, second compound 0.316 µM) greater than 10 µM; (curve of first compound, second compound 1 µM) greater than 10 µM; (curve of first compound, second compound 3.16 µM) greater than 10 µM; (curve of first compound, second compound 10 µM) greater than 10 µM. The viability, T/C was 95.9% (second compound 0.0316 µM, first compound 0.0316 µM); 96.7% (second compound 0.0316 µM, first compound 0.1 µM); 95.4% (second compound 0.0316 µM, first compound 0.316 µM); 94.7% (second compound 0.0316 µM, first compound 1 µM); 93.2% (second compound 0.0316 µM, first compound 3.16 µM); 75.9% (second compound 0.0316 µM, first compound 10 µM). The viability, T/C was 96.4% (second compound 0.1 µM, first compound 0.0316 µM); 96.5% (second compound 0.1 µM, first compound 0.1 µM); 93.5% (second compound 0.1 µM, first compound 0.316 µM); 108% (second compound 0.1 µM, first compound 1 µM); 92.7% (second compound 0.1 µM, first compound 3.16 µM); 84% (second compound 0.1 µM, first compound 10 µM). In addition, the viability, T/C (second compound 0.316 µM, first compound 0.0316 µM) was 101%; the viability, T/C (second compound 0.316 µM, first compound 0.1 µM) is 96.4%; the viability, T/C (second compound 0.316 µM, first compound 0.316 µM) is 93.5%; the viability, T/C (second compound 0.316 µM, first compound 1 µM) is 95.5%; the viability, T/C (second compound 0.316 µM, first compound 3.16 µM) was 91%; the viability, T/C (second compound 0.316 µM, first compound 10 µM) was 81.2%. The viability, T/C by setting is: (second compound 1 µM, first compound 0.0316 µM) 102%; (second compound 1 µM, first compound 0.1 µM) 91.5%; (second compound 1 µM, first compound 0.316 µM) 87.2%; (second compound 1 µM, first compound 1 µM) 85.4%; (second compound 1 µM, first compound 3.16 µM) 92.4%; (second compound 1 µM, first compound 10 µM) 78.3%. Moreover, the viability, T/C is 93.3% (second compound 3.16 µM, first compound 0.0316 µM); 88.2% (second compound 3.16 µM, first compound 0.1 µM); 90.3% (second compound 3.16 µM, first compound 0.316 µM); 84.2% (second compound 3.16 µM, first compound 1 µM); 89% (second compound 3.16 µM, first compound 3.16 µM); 82.5% (second compound 3.16 µM, first compound 10 µM). In addition, the viability, T/C by setting is: (second compound 10 µM, first compound 0.0316 µM) 102%; (second compound 10 µM, first compound 0.1 µM) 94.8%; (second compound 10 µM, first compound 0.316 µM) 84%; (second compound 10 µM, first compound 1 µM) 87.7%; (second compound 10 µM, first compound 3.16 µM) 88.2%; (second compound 10 µM, first compound 10 µM) 88.9%.

The record behind these values is PubChem BioAssay AID1963832 (Molecular Pharmacology Branch, DTP, NCI, 2024).
